According to publication PMC10756276, “Highly specific σ2R/TMEM97 ligand FEM-1689 alleviates neuropathic pain and inhibits the integrated stress response” (Proceedings of the National Academy of Sciences of the …, 2023):
Entries after “also recorded” stand apart in the source; their conditions may differ. Like-named read-outs stand apart in the source and are kept apart here.

Key:
hERG = hERG (Homo sapiens, UniProt Q12809); test: PDSP competitive binding assay (safety/nuisance target)
Beta2 = Beta2 (Homo sapiens, UniProt P07550); test: PDSP competitive binding assay; settings: 10 µM test article; read-out: Ki: primary assay inhibition of radioligand binding, Beta2
Chain of Beta2 (P07550 whole entry): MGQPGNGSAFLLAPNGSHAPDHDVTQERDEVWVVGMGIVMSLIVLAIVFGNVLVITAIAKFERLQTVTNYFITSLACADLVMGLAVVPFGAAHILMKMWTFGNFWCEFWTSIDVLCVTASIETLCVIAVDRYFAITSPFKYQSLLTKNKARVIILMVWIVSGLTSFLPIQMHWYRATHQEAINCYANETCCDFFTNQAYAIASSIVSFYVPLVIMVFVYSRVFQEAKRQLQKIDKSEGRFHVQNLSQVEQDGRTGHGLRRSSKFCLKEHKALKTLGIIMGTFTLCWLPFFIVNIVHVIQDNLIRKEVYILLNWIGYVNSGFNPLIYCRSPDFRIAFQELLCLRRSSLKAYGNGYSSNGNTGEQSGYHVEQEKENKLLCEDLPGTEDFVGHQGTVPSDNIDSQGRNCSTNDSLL

H4 = H4 (Homo sapiens, UniProt Q9H3N8); test: PDSP competitive binding assay
Chain of H4 (Q9H3N8 whole entry): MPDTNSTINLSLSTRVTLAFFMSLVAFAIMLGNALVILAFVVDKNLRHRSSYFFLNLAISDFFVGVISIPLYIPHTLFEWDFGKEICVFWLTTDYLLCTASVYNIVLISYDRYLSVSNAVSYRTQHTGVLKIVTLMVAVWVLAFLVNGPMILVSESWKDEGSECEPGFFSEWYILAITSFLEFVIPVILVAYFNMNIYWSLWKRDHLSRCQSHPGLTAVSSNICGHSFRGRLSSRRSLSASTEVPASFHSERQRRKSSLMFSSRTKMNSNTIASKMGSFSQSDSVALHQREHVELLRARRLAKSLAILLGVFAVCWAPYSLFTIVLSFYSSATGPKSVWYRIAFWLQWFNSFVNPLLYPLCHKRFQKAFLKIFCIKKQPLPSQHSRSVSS

Alpha2b = target: T1, Alpha2b (Homo sapiens, UniProt P18089); test: PDSP competitive binding assay; settings: 10 µM test article; read-out: Ki: primary assay inhibition of radioligand binding, Alpha2b
T1 construct: purchased NIMH Psychoactive Drug Screening Program (PDSP), University of North Carolina at Chapel Hill
T1 sequence (P18089 whole entry): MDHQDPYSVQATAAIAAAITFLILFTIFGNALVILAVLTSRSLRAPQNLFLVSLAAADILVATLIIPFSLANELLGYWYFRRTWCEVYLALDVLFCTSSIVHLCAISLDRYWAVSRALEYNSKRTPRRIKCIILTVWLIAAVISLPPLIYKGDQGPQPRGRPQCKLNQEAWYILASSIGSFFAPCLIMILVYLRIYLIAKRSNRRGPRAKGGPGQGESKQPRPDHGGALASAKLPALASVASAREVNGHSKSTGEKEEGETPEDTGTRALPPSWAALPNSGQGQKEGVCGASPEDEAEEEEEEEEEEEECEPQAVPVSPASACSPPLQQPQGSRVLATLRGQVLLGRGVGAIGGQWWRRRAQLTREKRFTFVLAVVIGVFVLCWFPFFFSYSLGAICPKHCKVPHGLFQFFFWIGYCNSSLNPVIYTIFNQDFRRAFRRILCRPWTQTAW

5HT1D = 5HT1D (Homo sapiens, UniProt P28221); test: PDSP competitive binding assay; settings: 10 µM test article; read-out: Ki: primary assay inhibition of radioligand binding, 5HT1D
M2 = M2 (Homo sapiens, UniProt P08172); test: PDSP competitive binding assay; settings: 10 µM test article; read-out: Ki: primary assay inhibition of radioligand binding, M2
5HT5a = target: T2, 5HT5a (Homo sapiens, UniProt P47898); test: PDSP competitive binding assay; settings: 10 µM test article; read-out: Ki: primary assay inhibition of radioligand binding, 5HT5a
T2 construct: purchased NIMH Psychoactive Drug Screening Program (PDSP), University of North Carolina at Chapel Hill

D1 = D1 (Homo sapiens, UniProt P21728); test: PDSP competitive binding assay; settings: 10 µM test article; read-out: Ki: primary assay inhibition of radioligand binding, D1
Chain of D1 (P21728 whole entry): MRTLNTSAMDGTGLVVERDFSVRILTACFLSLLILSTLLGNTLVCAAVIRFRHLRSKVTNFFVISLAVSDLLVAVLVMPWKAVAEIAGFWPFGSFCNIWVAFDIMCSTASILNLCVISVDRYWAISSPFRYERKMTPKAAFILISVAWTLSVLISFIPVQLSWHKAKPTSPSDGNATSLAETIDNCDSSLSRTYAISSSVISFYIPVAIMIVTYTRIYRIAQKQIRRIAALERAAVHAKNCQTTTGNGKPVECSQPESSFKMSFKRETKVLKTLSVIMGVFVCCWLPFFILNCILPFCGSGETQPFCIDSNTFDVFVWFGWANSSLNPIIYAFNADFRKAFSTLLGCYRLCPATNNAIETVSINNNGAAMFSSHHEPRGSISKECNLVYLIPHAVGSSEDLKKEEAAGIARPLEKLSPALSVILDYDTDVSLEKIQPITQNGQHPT

D5 = D5 (Homo sapiens, UniProt P21918); test: PDSP competitive binding assay; settings: 10 µM test article; read-out: Ki: primary assay inhibition of radioligand binding, D5
M4 = target: T3, M4 (Homo sapiens, UniProt P08173); test: PDSP competitive binding assay; settings: 10 µM test article; read-out: Ki: primary assay inhibition of radioligand binding, M4
T3 construct: purchased NIMH Psychoactive Drug Screening Program (PDSP), University of North Carolina at Chapel Hill
T3 sequence (P08173 whole entry): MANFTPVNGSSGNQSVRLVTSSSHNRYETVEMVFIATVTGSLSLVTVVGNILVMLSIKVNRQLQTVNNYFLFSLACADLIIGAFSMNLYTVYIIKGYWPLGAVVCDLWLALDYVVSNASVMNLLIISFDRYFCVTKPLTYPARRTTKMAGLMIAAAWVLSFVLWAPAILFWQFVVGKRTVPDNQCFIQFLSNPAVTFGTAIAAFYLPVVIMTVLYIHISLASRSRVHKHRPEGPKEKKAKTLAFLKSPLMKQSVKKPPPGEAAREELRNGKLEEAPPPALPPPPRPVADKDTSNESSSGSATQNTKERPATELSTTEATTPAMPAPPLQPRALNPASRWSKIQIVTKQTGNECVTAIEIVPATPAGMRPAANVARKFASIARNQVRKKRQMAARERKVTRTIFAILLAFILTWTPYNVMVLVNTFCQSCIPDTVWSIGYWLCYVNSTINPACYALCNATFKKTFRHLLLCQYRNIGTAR

[1] = system: p-ACC in mouse DRG neurons; test: p-ACC immunocytochemistry in cultured DRG neurons; assay type: cell-based; settings: 16 h; FEM-1689 10, 100, 1,000 nM; A769662 100 µM; wild-type and TMEM97KO neurons
Procedure: The ICC protocol was based on a previously published protocol ([76]). […] Cells were blocked with 10% normal goat serum (NGS) in PBS-triton X (0.1%). […] Antibodies were incubated at 4 °C overnight. […] It was washed with PBS twice. […] Images were analyzed using Olympus CellSens. […] Number of cells analyzed are detailed in SI Appendix, Tables S3 and S4. […]
T his BSA gradient containing the cells was centrifuged at 900g for 5 min at room temperatur e.
The pellet containing the cells was resuspended in Br ainPhys media (STEMCell #05790) containing 2% […]
1% Gluta Max (Gibco # 350 5 0061). Hu man DRG ne uron s were plated a nd grown o n glass coverslips coate d with po ly-D-lysine (Sigma #P7405). C ultured D RG neurons were plated for 24 hours before being treated.
Methylglyoxal (Sigma- Aldrich #M0252) and F EM- 1689 were serially diluted in media.
Mouse samples - DRG cultures […]
anesthesia and decapitated. […]
section above with minor differences.
Mouse DRG neurons were grown in
SAS-0132 and DKR-1677 were […]
dissolved in 100% DMSO to a final concentr ation of 200mM and stored at - 20 °C. and DKR-1677 were serially diluted in media. Untreated media was completely replaced with media containing each compound. […]
Slides were […]
incubated with 1:2 diluted hydrogen peroxide in distilled water for 10 min at r oom temper ature and washed twice in distilled water. […]

σ2R/TMEM97 = σ2R/TMEM97 (Homo sapiens, UniProt Q5BJF2); test: Competition binding with [3H]-ditolylguanidine in presence of (+)-pentazocine (NIMH PDSP)
Chain of σ2R/TMEM97 (Q5BJF2 whole entry): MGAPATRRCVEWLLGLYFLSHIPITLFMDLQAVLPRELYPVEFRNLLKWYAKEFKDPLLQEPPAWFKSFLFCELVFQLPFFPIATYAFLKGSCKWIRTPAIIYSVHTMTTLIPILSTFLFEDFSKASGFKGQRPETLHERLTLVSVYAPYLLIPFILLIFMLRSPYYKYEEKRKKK

Alpha1b = target: T4, Alpha1b (Homo sapiens, UniProt P35368); test: PDSP competitive binding assay; settings: 10 µM test article; read-out: Ki: primary assay inhibition of radioligand binding, Alpha1b
T4 construct: purchased NIMH Psychoactive Drug Screening Program (PDSP), University of North Carolina at Chapel Hill

M3 = target: T5, M3 (Homo sapiens, UniProt P20309); test: PDSP competitive binding assay; settings: 10 µM test article; read-out: Ki: primary assay inhibition of radioligand binding, M3
T5 construct: purchased NIMH Psychoactive Drug Screening Program (PDSP), University of North Carolina at Chapel Hill

H1 = target: T6, H1 (Homo sapiens, UniProt P35367); test: PDSP competitive binding assay; settings: 10 µM test article; read-out: Ki: primary assay inhibition of radioligand binding, H1
T6 construct: purchased NIMH Psychoactive Drug Screening Program (PDSP), University of North Carolina at Chapel Hill

M1 = M1 (Homo sapiens, UniProt P11229); test: PDSP competitive binding assay; settings: 10 µM test article; read-out: Ki: primary assay inhibition of radioligand binding, M1
5HT3 = 5HT3 (Homo sapiens, UniProt P46098); test: PDSP competitive binding assay; settings: 10 µM test article; read-out: Ki: primary assay inhibition of radioligand binding, 5HT3
[2] = Pharmacokinetic parameters after IP dosing (Fig. 2); assay type: in vivo
5HT2B = 5HT2B (Homo sapiens, UniProt P41595); test: PDSP competitive binding assay; settings: 10 µM test article; read-out: Ki: primary assay inhibition of radioligand binding, 5HT2B
Chain of 5HT2B (P41595 whole entry): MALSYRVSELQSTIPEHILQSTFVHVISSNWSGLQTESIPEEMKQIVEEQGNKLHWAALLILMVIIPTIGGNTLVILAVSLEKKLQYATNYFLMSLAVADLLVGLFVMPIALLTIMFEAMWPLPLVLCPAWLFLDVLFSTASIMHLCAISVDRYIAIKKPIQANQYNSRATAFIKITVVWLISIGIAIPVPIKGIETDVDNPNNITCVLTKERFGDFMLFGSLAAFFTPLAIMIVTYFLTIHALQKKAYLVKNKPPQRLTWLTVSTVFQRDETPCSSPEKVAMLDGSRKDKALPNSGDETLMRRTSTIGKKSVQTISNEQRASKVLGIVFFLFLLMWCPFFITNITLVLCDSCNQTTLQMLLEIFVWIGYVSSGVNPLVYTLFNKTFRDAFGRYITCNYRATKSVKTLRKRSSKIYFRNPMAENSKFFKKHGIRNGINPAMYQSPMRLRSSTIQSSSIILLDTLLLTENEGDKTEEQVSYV

BZP Rat Brain = test: PDSP competitive binding assay
D4 = D4 (Homo sapiens, UniProt P21917); test: PDSP competitive binding assay; settings: 10 µM test article; read-out: Ki: primary assay inhibition of radioligand binding, D4
Chain of D4 (P21917 whole entry): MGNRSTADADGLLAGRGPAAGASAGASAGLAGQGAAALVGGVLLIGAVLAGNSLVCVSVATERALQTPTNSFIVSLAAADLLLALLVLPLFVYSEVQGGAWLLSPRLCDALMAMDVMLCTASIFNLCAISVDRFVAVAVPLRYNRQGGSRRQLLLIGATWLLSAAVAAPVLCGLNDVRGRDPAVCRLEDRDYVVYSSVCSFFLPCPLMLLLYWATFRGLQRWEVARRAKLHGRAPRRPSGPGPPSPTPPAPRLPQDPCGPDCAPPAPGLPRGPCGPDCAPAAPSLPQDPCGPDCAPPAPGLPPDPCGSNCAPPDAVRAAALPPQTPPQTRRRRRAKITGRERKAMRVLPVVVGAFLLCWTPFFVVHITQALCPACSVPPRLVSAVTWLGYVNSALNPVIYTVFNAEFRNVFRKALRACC

Alpha1d = target: T7, Alpha1d (Homo sapiens, UniProt P25100); test: PDSP competitive binding assay; settings: 10 µM test article; read-out: Ki: primary assay inhibition of radioligand binding, Alpha1d
T7 construct: purchased NIMH Psychoactive Drug Screening Program (PDSP), University of North Carolina at Chapel Hill
T7 sequence (P25100 whole entry): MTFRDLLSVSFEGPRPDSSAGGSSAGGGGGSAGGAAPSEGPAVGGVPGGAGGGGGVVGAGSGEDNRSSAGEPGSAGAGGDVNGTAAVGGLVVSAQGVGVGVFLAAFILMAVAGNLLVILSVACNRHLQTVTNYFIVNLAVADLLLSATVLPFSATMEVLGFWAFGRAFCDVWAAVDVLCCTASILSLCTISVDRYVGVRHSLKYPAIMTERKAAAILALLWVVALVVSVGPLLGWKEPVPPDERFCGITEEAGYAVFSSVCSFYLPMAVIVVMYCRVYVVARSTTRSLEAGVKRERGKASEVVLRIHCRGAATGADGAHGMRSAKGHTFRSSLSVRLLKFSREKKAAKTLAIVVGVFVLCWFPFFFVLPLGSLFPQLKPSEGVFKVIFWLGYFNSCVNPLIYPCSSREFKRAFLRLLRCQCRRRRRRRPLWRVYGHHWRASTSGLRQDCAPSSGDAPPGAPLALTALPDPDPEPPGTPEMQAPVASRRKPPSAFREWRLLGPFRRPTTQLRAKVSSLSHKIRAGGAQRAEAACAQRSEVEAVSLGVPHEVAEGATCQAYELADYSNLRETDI

[3] = dose response curve, given as LogKi with negative sign

Chain of hERG (Q12809 whole entry): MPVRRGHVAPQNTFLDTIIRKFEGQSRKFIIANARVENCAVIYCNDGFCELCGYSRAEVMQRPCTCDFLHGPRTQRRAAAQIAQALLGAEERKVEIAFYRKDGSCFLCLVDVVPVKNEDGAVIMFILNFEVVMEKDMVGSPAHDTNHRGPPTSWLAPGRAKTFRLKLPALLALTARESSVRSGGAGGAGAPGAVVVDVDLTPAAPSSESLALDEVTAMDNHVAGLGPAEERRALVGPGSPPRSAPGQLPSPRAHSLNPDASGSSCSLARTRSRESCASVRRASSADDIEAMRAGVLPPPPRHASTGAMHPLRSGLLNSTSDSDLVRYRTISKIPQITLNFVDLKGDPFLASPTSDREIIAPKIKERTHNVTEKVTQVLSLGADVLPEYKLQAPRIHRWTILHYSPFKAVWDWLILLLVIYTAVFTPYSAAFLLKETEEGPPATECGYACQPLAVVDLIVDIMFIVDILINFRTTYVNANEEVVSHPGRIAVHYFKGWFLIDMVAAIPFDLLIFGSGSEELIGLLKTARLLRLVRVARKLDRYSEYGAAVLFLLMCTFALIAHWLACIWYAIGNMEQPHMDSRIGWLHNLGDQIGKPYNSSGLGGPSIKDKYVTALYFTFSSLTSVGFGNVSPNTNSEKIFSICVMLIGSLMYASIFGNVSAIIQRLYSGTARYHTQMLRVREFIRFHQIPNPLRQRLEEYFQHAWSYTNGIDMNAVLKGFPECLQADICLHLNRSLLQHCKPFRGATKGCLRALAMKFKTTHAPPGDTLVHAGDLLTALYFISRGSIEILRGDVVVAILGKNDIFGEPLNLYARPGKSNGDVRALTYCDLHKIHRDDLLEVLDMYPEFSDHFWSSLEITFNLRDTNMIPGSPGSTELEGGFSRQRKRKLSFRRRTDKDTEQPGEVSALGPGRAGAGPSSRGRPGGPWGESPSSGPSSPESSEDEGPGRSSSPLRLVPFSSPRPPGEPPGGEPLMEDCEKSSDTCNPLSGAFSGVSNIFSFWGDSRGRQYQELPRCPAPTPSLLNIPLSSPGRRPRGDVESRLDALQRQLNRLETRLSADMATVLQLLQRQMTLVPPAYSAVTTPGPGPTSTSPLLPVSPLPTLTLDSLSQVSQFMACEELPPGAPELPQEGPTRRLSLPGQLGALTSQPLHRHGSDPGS

Structure (SMILES): OCCCN1CC[C@@H]2C[C@H]1c1cc(-c3ccc(C(F)(F)F)cc3)ccc12 [FEM-1689]
- LogKi, HERG (hERG; [3]): -6.08
- Ki (hERG; dose response curve, read-out: Ki, HERG): 0.839 µM
- Ki (hERG; single determination, read-out: hERG Ki): 0.839 µM
- inhibition at 10 µM (Beta2): < 50%
- LogKi, H4 (H4; [3]): -5.26
- Ki (H4; read-out: H4 Ki, single determination): 5.51 µM
- Ki (H4; read-out: Ki, H4, dose response curve): 5.51 µM
- inhibition at 10 µM (Alpha2b): < 50%
- inhibition at 10 µM (5HT1D): < 50%
- inhibition at 10 µM (M2): < 50%
- inhibition at 10 µM (5HT5a): < 50%
- inhibition at 10 µM (D1): < 50%
- inhibition at 10 µM (D5): < 50%
- inhibition at 10 µM (M4): < 50%
- p-ACC levels [1]: remained unchanged; also recorded: no change in p-ACC levels
- Ki (σ2R/TMEM97): 0.0112 µM
- Ki (σ2R/TMEM97; read-out: σ2R/TMEM97 Ki, averages ± SD): 0.017 ± 0.008 µM
- inhibition at 10 µM (Alpha1b): < 50%
- inhibition at 10 µM (M3): < 50%
- inhibition at 10 µM (H1): < 50%
- inhibition at 10 µM (M1): < 50%
- inhibition at 10 µM (5HT3): < 50%
- brain to plasma ratio (AUClast) ([2]; IP): 20.5
- Cmax (IP) ([2]; brain, IP): 10916 ng/mL
- t1/2 (IP) ([2]; brain, IP): 11.4 h
- brain entry ([2]; pharmacokinetic experiments, Fig. 2): readily enters the brain
- Cmax (IP) ([2]; plasma, IP): 508 ng/mL
- t1/2 (IP) ([2]; plasma, IP): 21.7 h
- inhibition at 10 µM (5HT2B): < 50%
- LogKi, BZP Rat Brain (BZP Rat Brain; [3]): -5.18
- Ki (BZP Rat Brain; dose response curve, read-out: Ki, BZP Rat Brain): 6.59 µM
- Ki (BZP Rat Brain; single determination, read-out: BZP Rat Brain Ki): 6.59 µM
- inhibition at 10 µM (D4): < 50%
- inhibition at 10 µM (Alpha1d): < 50%
